These results are taken from patent publication US20250026765A1, “SPIROHETEROCYCLE DERIVATIVE HAVING SEROTONIN RECEPTOR BINDING ACTIVITY” (Shionogi & Co., Ltd., priority 2021, published 2025).

Read-outs that look alike come from different tables or passages of the source.

The target of assay [1] is human ether-a-go-go related gene (hERG) channel (Homo sapiens (Human), UniProt Q12809). The assay can be described thus: hERG test (FluxOR II potassium channel assay, FLIPR). It is filed as cell-based. As to conditions: CHO cells expressing hERG channel, thallium flux fluorescence, 10 minutes. How it is done:
Test Example 3: hERG Test
For the purpose of evaluating risk of an electrocardiogram QT interval prolongation of the compound of the present invention, effects of the compound are studied by evaluating the activity of potassium channel using CHO cells expressing human ether-a-go-go related gene (hERG) channel.
Evaluation is performed using a FluxORII Green Potassium IonCgannel Assay kit
(Invitrogen: Molecular Probes).
Cells are seeded in a 384-assay plate (8000 cells/well/40 μL) and incubated (37° C., […] overnight. After replacing the medium with a Wash buffer (1×HBSS, 20 mM HEPES) with a microplate washer, a fluorescent indicator is added to the medium and allowed to incubate (37° C., 5% CO2) for 1 hour for incorporation of the fluorescent indicator into cells.
A cell plate is placed on a cell-based kinetic assay system FLIPR (Molecular Devices, LLC.), and the compound is added to the cells so as to have a desired concentration and reacted for 10 minutes. When a mixed solution of potassium and thallium as a stimulator is added thereto, the potassium channel is opened, and thallium that flowed into the cells binds to the fluorescent indicator, so that the intracellular fluorescence signal increases, and the potassium channel current is detected as a fluorescence signal. For the inhibition rate at each concentration, the signal intensity when E-4031 is added to cells at a final concentration of 10.3 μmol/L is defined as an inhibition rate of 100%, and the signal intensity when DMSO is added to cells at a final concentration of 0.5% is defined as an inhibition rate of 0%. Then, the inhibition rate is calculated from the signal intensity at each concentration. IC50 is calculated from the inhibition rate at each concentration.

Assay [2] has as its target human recombinant 5-HT2C receptor (Homo sapiens (Human), UniProt P28335). The assay can be described thus: 5-HT2C receptor binding inhibition test ([3H]-Mesulergine). As to conditions: Jump-In HEK cell membrane, 37° C. 2 hours. In outline:
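Radioligand displacement on HEK membranes expressing human recombinant 5-HT2C (0.5 μg/well), [3H]-mesulergine near its Kd, in pH 7.4 Tris-HCl buffer with NaCl, MgCl2, KCl, CaCl2 and 0.1% BSA, 2 h at 37° C. Bound radioactivity measured after GF/B filtration; non-specific binding defined with 500 μmol/L serotonin, Ki from dose-response curve.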

[3] abbreviates: read-out: human serotonin 5-HT2C receptor binding activity Ki.

Sequence of human recombinant 5-HT2C receptor (P28335 33-458): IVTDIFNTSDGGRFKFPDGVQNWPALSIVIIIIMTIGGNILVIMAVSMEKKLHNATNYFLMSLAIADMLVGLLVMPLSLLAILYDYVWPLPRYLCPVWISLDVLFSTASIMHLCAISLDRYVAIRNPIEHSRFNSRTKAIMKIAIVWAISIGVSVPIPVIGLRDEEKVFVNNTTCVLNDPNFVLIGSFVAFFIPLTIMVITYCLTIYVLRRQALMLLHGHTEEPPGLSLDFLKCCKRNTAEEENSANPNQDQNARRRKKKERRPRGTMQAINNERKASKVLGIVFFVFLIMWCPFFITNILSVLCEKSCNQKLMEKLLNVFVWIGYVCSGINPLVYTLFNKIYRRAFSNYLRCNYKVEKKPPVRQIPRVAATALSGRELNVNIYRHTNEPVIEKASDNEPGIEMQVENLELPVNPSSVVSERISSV
Sequence of human ether-a-go-go related gene (hERG) channel (Q12809 whole entry): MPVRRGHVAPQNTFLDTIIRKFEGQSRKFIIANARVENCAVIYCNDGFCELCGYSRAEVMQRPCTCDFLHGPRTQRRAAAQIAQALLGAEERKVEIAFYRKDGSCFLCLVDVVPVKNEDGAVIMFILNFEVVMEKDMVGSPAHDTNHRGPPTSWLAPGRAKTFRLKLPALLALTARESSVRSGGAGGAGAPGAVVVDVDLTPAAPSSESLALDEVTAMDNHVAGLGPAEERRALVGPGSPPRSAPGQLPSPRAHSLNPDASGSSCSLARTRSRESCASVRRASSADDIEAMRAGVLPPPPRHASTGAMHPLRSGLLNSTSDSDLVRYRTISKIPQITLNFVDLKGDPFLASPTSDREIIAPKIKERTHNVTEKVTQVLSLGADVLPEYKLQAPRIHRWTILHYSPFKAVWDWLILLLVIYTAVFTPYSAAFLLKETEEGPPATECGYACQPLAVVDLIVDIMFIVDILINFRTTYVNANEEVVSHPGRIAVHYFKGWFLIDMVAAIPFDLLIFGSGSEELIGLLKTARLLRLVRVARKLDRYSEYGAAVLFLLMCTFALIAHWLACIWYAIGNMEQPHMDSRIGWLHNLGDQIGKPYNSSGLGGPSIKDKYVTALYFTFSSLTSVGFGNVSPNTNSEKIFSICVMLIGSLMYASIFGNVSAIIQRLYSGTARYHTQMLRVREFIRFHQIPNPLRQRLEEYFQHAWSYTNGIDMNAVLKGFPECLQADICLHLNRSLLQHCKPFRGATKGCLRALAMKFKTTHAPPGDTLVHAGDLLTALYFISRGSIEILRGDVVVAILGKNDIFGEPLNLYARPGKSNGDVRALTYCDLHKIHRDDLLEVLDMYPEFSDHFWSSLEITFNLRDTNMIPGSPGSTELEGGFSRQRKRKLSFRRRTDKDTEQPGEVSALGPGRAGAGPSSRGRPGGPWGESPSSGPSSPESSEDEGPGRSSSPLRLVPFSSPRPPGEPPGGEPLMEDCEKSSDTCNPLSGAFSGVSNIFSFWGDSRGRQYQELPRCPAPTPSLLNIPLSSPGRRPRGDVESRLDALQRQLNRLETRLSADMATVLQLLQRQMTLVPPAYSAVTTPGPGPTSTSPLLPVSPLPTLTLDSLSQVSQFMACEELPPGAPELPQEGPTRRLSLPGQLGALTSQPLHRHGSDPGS

In general, IC50 refers to the concentration that inhibits the measured activity by half. The low end stands for greater potency, the high end for weaker potency. As usually defined, the Ki is the dissociation constant of the complex between target and ligand, obtained from inhibition or displacement. With `CCCCOc1ccc(CN(Cc2coc(C)n2)C2=NOC3(CCN(C)CC3)N2)c(F)c1` [Compound I-114], the IC50 in assay [1] is above 52 µM. For the same molecule, the Ki in assay [2] (setting [3]) is 0.543 nM.
As for `Cc1nc(CN(Cc2ccc(OCC(C)C)cc2F)C2=NOC3(CCN(C)CC3)N2)co1` [Compound I-128], the half-inhibitory concentration (IC50) in assay [1] was above 52 µM. The Ki in assay [2] (setting [3]) was 0.374 nM.
Molecule `CCCCOc1ccc(CN(Cc2coc(C)n2)C2=NOC3(CCN(C)CC3)N2)cc1F` [Compound I-115] came in with an IC50 in assay [1] above 52 µM. Moreover, the Ki in assay [2] (setting [3]) is 0.469 nM.
`CC(C)COc1ccc(CN(Cc2coc(CF)n2)C2=NOC3(CCN(C)CC3)N2)cc1` [Compound I-067] had an IC50 in assay [1] of 16.3 µM. The values for the Ki in assay [2] (read-out: h-5-HT2C Ki) and in assay [2] (setting [3]) were below 10 nM and 0.95 nM, respectively.
In assay [1], `CCCCOc1ccc(CN(Cc2coc(C)n2)C2=NOC3(CCN(C)CC3)N2)cc1` [Compound I-080] came in with an IC50 above 52 µM. The figures for the Ki in assay [2] (read-out: h-5-HT2C Ki) and in assay [2] (setting [3]) were below 10 nM and 0.579 nM, respectively.
In the case of `CCCCOc1ccc(CN(Cc2coc(CF)n2)C2=NOC3(CCN(C)CC3)N2)cc1` [Compound I-105], the IC50 in assay [1] was 17.9 µM. Also, the inhibitory constant (Ki) in assay [2] (setting [3]) turned out to be 1.13 nM.
For `Cc1nc(CN(Cc2ccc(OCC(F)(F)C(F)(F)F)cc2F)C2=NOC3(CCN(C)CC3)N2)co1` [Compound I-104], the midpoint of inhibition in assay [1], the IC50, lay at 20.6 µM. Further, the inhibitory constant (Ki) in assay [2] (setting [3]) was found to be 0.578 nM.
For `CCCCOc1ccc(CN(Cc2cnn(C)n2)C2=NOC3(CCN(C)CC3)N2)cc1` [Compound I-113], in that order: above 52 µM and 1.6 nM.
On to `Cc1nc(CN(Cc2ccc(CCC(F)(F)F)cc2)C2=NOC3(CCN(C)CC3)N2)co1` [Compound I-125], for which, in assay [1], 20 µM corresponded to half-maximal inhibition (IC50). In assay [2] (setting [3]), the Ki was 0.694 nM.
